# Experimental data reported in PMC6704710, “Preclinical evaluation of 3D185, a novel potent inhibitor of FGFR1/2/3 and CSF-1R, in FGFR-dependent and macrophage-dominant cancer models” (Journal of Experimental & Clinical Cancer Research : CR, 2019).
# Legend:
# Assay in all cases: Eurofins kinase panel
# Type in all cases: biochemical
# Details in all cases: read-out: Inhibition rate (%)
# CDK5/p35(h) = molecular target: T1, CDK5/p35(h) (Homo sapiens, UniProt Q00535)
# T1 construct: purchased Eurofins (KinaseProfiler)
# DYRK3(h) = molecular target: T2, DYRK3(h) (Homo sapiens, UniProt O43781)
# T2 construct: purchased Eurofins (KinaseProfiler)
# T2 sequence (O43781 1-588): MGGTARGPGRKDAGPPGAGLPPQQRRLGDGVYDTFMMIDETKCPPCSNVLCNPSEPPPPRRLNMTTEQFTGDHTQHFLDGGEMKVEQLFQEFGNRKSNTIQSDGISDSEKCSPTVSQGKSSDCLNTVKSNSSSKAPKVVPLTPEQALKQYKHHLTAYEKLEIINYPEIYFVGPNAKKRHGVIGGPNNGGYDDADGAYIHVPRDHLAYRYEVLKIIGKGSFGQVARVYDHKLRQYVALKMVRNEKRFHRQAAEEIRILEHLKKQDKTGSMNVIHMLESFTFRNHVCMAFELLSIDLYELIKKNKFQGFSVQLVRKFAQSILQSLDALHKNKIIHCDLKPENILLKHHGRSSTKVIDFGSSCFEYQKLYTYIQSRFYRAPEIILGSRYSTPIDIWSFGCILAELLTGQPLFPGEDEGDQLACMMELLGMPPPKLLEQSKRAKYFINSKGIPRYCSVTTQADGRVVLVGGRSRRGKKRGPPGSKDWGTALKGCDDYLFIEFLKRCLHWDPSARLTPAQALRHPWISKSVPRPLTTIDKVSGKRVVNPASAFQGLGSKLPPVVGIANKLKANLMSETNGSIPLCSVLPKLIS
# EphA3(h) = molecular target: T3, EphA3(h) (Homo sapiens, UniProt P29320)
# T3 construct: purchased Eurofins (KinaseProfiler)
# T3 sequence (P29320 21-983): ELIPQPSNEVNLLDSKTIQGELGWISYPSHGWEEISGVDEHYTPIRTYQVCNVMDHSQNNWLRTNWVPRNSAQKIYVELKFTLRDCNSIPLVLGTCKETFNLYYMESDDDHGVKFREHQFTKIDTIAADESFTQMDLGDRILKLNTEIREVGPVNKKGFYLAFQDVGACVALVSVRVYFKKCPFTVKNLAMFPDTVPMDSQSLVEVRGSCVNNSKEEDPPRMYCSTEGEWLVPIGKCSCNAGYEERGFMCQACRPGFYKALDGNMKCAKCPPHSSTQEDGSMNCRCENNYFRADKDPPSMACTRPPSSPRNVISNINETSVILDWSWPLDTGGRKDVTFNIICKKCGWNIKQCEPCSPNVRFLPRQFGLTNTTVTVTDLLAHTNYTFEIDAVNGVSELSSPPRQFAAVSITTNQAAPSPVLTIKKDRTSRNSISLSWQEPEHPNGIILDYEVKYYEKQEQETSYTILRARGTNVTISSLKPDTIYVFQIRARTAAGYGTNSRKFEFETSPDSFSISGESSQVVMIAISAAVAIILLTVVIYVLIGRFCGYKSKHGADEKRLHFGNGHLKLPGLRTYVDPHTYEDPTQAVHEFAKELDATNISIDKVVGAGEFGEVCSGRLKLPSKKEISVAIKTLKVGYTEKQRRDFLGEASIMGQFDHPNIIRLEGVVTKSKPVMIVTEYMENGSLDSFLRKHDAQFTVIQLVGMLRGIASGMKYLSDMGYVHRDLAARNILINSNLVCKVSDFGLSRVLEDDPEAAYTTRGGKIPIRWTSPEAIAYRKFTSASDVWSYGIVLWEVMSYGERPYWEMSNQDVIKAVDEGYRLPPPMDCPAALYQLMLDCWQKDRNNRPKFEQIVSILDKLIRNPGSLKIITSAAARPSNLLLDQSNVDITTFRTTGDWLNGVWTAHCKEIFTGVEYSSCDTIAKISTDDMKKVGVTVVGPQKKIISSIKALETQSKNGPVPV
# MEKK2(h) = molecular target: T4, MEKK2(h) (Homo sapiens, UniProt Q9Y2U5)
# T4 construct: purchased Eurofins (KinaseProfiler)
# T4 sequence (Q9Y2U5 1-619): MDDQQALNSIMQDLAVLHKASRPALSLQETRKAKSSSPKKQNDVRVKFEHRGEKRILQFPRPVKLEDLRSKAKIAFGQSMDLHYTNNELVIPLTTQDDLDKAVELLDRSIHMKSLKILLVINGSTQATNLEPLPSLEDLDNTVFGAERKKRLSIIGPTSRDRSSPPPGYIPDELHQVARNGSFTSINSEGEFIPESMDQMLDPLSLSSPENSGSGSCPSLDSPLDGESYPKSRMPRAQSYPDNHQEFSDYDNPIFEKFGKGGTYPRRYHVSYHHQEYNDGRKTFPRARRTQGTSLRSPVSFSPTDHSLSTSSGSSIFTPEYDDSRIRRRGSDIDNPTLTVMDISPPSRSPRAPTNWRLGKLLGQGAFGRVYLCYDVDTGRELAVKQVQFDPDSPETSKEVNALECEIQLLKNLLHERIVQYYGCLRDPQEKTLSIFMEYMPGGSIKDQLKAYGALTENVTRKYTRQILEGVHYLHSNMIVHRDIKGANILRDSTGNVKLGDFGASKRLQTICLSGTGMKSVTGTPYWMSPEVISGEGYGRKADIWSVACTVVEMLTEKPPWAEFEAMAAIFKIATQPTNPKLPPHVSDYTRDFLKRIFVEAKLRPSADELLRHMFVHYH
# MINK(h) = molecular target: T5, MINK(h) (Homo sapiens, UniProt Q8N4C8)
# T5 construct: purchased Eurofins (KinaseProfiler)
# Pim-3(h) = molecular target: T6, Pim-3(h) (Homo sapiens, UniProt Q86V86)
# T6 construct: purchased Eurofins (KinaseProfiler)
# ROCK-II(h) = molecular target: T7, ROCK-II(h) (Homo sapiens, UniProt O75116)
# T7 construct: purchased Eurofins (KinaseProfiler)
# Rsk3(h) = molecular target: T8, Rsk3(h) (Homo sapiens, UniProt Q15349)
# T8 construct: purchased Eurofins (KinaseProfiler)
# T8 sequence (Q15349 whole entry): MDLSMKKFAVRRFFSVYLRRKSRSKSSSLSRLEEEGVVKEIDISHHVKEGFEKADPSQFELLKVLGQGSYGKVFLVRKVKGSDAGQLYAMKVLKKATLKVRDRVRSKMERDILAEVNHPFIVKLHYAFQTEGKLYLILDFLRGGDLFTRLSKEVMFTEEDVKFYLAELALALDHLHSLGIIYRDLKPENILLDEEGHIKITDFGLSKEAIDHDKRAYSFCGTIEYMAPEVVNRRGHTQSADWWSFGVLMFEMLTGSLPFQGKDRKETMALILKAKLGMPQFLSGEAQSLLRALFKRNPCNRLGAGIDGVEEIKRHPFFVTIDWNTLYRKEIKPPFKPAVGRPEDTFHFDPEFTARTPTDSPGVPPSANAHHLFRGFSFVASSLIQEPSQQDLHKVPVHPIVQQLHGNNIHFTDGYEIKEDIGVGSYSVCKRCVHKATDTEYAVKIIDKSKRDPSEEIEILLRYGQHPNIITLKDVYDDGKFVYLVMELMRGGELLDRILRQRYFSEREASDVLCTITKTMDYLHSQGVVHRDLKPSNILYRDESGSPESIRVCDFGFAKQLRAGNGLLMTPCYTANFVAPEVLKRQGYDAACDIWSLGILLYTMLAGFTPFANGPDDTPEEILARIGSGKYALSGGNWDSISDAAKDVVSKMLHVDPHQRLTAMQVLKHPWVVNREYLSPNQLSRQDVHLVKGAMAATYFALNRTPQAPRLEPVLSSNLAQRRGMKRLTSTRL
# T5 sequence (Q8N4C8 whole entry): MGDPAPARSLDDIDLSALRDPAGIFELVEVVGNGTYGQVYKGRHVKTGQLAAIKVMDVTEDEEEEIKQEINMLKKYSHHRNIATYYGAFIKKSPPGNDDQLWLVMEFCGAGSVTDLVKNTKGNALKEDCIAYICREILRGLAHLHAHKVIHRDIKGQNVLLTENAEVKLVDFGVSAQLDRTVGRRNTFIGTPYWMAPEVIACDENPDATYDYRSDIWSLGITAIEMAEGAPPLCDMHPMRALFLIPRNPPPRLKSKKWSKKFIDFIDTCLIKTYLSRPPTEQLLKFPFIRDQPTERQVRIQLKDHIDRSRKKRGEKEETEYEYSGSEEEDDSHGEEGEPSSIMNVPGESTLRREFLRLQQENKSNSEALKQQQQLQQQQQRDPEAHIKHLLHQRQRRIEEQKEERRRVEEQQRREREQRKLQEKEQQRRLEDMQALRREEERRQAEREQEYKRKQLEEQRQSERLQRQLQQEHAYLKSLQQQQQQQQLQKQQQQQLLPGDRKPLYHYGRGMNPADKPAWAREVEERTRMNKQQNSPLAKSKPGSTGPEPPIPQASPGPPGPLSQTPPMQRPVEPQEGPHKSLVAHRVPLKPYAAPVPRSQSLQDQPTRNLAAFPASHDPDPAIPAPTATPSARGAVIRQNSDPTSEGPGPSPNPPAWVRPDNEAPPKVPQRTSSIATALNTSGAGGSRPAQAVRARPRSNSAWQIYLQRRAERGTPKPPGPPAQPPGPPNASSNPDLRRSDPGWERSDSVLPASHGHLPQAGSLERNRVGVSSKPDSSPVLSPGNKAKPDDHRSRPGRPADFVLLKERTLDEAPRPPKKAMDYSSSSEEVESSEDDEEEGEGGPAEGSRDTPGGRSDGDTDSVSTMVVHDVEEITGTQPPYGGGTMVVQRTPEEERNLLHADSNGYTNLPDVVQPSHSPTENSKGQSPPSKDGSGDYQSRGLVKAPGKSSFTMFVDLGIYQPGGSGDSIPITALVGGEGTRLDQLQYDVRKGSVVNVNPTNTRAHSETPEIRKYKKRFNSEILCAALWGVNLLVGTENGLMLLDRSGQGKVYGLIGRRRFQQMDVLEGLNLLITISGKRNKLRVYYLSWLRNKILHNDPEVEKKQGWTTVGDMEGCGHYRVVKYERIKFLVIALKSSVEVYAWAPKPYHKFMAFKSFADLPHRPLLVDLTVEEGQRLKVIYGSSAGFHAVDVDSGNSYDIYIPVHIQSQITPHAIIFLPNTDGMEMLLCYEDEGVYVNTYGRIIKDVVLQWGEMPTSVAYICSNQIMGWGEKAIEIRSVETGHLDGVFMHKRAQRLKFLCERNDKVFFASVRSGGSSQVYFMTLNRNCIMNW
# T7 sequence (O75116 whole entry): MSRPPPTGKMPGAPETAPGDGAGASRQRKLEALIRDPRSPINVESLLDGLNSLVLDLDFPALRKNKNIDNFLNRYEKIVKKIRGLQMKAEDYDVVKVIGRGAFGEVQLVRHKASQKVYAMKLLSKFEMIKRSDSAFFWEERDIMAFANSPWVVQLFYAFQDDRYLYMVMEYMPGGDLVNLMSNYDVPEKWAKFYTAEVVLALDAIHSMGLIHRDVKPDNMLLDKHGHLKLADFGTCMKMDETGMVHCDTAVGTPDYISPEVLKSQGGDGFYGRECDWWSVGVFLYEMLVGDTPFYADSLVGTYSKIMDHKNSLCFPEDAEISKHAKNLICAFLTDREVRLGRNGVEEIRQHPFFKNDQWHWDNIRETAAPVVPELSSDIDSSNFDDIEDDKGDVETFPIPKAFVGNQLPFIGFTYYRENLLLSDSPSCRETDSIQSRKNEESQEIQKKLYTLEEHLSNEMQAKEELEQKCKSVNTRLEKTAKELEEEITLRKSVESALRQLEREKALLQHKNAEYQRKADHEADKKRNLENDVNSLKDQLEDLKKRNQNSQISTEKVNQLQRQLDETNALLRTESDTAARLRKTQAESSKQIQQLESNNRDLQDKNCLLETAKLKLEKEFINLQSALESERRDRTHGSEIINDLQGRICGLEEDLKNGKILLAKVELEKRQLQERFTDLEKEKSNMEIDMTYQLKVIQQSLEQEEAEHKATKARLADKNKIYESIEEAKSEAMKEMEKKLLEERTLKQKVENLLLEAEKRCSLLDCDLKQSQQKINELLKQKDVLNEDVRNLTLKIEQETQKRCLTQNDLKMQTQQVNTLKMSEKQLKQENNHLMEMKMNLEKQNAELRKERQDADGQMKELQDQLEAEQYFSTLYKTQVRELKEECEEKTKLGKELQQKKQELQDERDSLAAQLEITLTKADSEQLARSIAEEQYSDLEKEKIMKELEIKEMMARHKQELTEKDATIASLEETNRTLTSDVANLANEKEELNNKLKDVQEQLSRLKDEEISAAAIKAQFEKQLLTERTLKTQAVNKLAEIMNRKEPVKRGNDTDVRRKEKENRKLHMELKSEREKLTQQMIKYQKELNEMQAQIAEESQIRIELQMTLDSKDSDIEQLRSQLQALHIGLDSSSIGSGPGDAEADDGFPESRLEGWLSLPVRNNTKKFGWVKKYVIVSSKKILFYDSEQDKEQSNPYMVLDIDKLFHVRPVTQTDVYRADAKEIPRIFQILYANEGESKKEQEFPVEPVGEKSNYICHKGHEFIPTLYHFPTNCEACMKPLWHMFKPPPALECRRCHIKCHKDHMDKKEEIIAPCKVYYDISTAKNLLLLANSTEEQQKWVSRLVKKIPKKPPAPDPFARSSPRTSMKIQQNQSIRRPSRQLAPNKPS
# T1 sequence (Q00535 whole entry): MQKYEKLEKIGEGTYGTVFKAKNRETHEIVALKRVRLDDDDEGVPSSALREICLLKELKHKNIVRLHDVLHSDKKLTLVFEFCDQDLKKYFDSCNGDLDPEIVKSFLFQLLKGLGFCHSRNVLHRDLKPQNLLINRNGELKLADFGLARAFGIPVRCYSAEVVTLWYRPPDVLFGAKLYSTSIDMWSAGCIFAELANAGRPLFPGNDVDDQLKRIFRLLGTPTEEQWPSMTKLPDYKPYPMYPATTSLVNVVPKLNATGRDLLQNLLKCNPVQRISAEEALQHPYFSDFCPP
# T1 sequence (Q15078 whole entry partner): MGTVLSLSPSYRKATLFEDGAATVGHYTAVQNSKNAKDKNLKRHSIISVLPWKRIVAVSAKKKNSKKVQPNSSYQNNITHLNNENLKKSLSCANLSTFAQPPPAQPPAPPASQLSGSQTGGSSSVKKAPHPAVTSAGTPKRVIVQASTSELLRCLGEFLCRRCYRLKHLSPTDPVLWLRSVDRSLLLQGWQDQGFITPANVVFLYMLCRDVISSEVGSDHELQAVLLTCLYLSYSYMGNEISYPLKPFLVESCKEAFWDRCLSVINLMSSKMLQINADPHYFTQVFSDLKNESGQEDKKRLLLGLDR
smiles,measurement,setting,value
COc1cc(OC)c(Cl)c(-c2ccc3c(NC(=O)c4ccc(N5CCNC(C)(C)C5)cc4)n[nH]c3n2)c1Cl [3D185],inhibition at 0.01 µM,CDK5/p35(h); 10 nM,19%
same,inhibition at 0.1 µM,CDK5/p35(h); 100 nM,17%
same,inhibition at 1 µM,CDK5/p35(h); 1000 nM,12%
same,inhibition at 0.01 µM,DYRK3(h); 10 nM,-24%
same,inhibition at 0.1 µM,DYRK3(h); 100 nM,-31%
same,inhibition at 1 µM,DYRK3(h); 1000 nM,-27%
same,inhibition at 0.01 µM,EphA3(h); 10 nM,2%
same,inhibition at 0.1 µM,EphA3(h); 100 nM,14%
same,inhibition at 1 µM,EphA3(h); 1000 nM,30%
same,inhibition at 0.01 µM,MEKK2(h); 10 nM,34%
same,inhibition at 0.1 µM,MEKK2(h); 100 nM,85%
same,inhibition at 1 µM,MEKK2(h); 1000 nM,97%
same,inhibition at 0.01 µM,MINK(h); 10 nM,28%
same,inhibition at 0.1 µM,MINK(h); 100 nM,68%
same,inhibition at 1 µM,MINK(h); 1000 nM,90%
same,inhibition at 0.01 µM,Pim-3(h); 10 nM,-5%
same,inhibition at 0.1 µM,Pim-3(h); 100 nM,-11%
same,inhibition at 1 µM,Pim-3(h); 1000 nM,-1%
same,inhibition at 0.01 µM,ROCK-II(h); 10 nM,0%
same,inhibition at 0.1 µM,ROCK-II(h); 100 nM,-1%
same,inhibition at 1 µM,ROCK-II(h); 1000 nM,-1%
same,inhibition at 0.01 µM,Rsk3(h); 10 nM,-17%
same,inhibition at 0.1 µM,Rsk3(h); 100 nM,-19%
same,inhibition at 1 µM,Rsk3(h); 1000 nM,-15%
